Experimental data published in patent US10167300B2, “Metalloenzyme inhibitor compounds as fungicides” (priority 2014, dated 2019).
Read-outs that look alike come from different tables or passages of the source.

Legend:
Format in all cases: in vivo, Mycosphaerella graminicola on wheat plants (variety Yuma)
[1] = tested on: Mycosphaerella graminicola; Anamorph: Septoria tritici; Bayer Code SEPTTR (standard laboratory isolate, SI SEPTTR); experiment: Type B (low volume, EC formulation, track sprayer 200 L/ha) assay, leaf blotch of wheat, standard laboratory SEPTTR isolate (SI SEPTTR); conditions: Zymoseptoria tritici, 72 h, 100 g/ha
Description: (§1) Example A: Evaluation of Fungicidal Activity: Leaf Blotch of Wheat (Mycosphaerella graminicola; Anamorph: Septoria tritici; Bayer Code SEPTTR)
(§2) For Type A assays, technical grades of the experimental fungicides in Table 4 below were dissolved in acetone, and then mixed with nine volumes of water containing 110 ppm Triton X-100. The fungicide solutions were applied onto wheat seedlings using an automated booth sprayer. For Type B assays, emulsifiable concentrate (EC) formulations of technical grades of the experimental fungicides in Table 4 below were prepared at 10% (w/v), and then mixed with 150 volumes of 0.1% Trycol 5941. These solutions were applied onto wheat seedlings using an automated track sprayer at 200 L/ha. All sprayed plants were allowed to air dry prior to further handling.
(§3) Wheat plants (variety Yuma) were grown from seed in a greenhouse in 50% mineral soil/50% soil-less Metro mix until the first leaf was fully emerged, with 7-10 seedlings per pot. Prior to or after application of experimental fungicides, plants were inoculated either with spores of a standard laboratory SEPTTR isolate (SI SEPTTR) or with spores from a SEPTTR field isolate collected from Wellsbourne, England in 2012 (FI SEPTTR). After inoculation the plants were kept for 3 days at 20° C. in 100% relative humidity (one day in a dark dew chamber followed by two days in a lighted dew chamber). Plants were then transferred to a 20° C. greenhouse for disease development. When disease symptoms were fully expressed on untreated plants, infection levels on treated plants were assessed on a scale of 0 to 100 percent disease severity. Percent disease control was calculated using the ratio of disease severity on treated plants relative to untreated plants.

[2] = Type B (low volume, EC formulation, track sprayer 200 L/ha) assay, leaf blotch of wheat, SEPTTR field isolate (FI SEPTTR); conditions: Zymoseptoria tritici, 72 h, 100 g/ha
Method in brief: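 Wheat seedlings (Yuma, first leaf emerged) sprayed with acetone/Triton X-100 solutions (Type A) or 10% EC diluted in 0.1% Trycol at 200 L/ha (Type B), inoculated before or after spraying. Inoculated plants held 3 days at 20 °C, 100% RH, then greenhouse; % disease control from severity versus untreated plants.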

[3] = tested on: Mycosphaerella graminicola; Anamorph: Septoria tritici; Bayer Code SEPTTR (standard laboratory isolate, SI SEPTTR); experiment: Type A (high volume) assay, leaf blotch of wheat, standard laboratory SEPTTR isolate (SI SEPTTR); conditions: standard laboratory isolate, high volume, 50 ppm, wheat (Yuma); for pest or weed control at 50 ppm: Zymoseptoria tritici
Description: as §1, §2, §3

[4] = standard laboratory isolate, low volume EC, 3 Day Curative, wheat (Yuma), read-out: Disease Control, SI SEPTTR Type B Assay (100 g/ha) 3 DC
[5] = standard laboratory isolate, low volume EC, 3 Day Protectant, wheat (Yuma), read-out: Disease Control, SI SEPTTR Type B Assay (100 g/ha) 3 DP
[6] = field isolate, low volume EC, 3 Day Curative, wheat (Yuma), read-out: Disease Control, FI SEPTTR Type B Assay (100 g/ha) 3 DC
[7] = field isolate, low volume EC, 3 Day Protectant, wheat (Yuma), read-out: Disease Control, FI SEPTTR Type B Assay (100 g/ha) 3 DP
[8] = 72 h, 3 Day Curative, read-out: Disease Control, SI SEPTTR Type A Assay (50 ppm) 3 DC
[9] = 24 h, 1 Day Protectant, read-out: Disease Control, SI SEPTTR Type A Assay (50 ppm) 1 DP

SMILES | pest or weed control at 100 g/ha [1, 4] [%] | pest or weed control at 100 g/ha [1, 5] [%] | pest or weed control at 100 g/ha [2, 6] [%] | pest or weed control at 100 g/ha [2, 7] [%] | pest or weed control at 50 ppm [3, 8] [%] | Disease Control, SI SEPTTR Type A Assay (50 ppm) 1 DP ([3]; 1 Day Protectant) | pest or weed control at 50 ppm [3, 9] [%] | pest or weed control at 100 g/ha ([1]; SEPTTR standard laboratory isolate, low volume Type B assay, 3 Day Curative, wheat leaf blotch, read-out: Disease Control, SI SEPTTR Type B Assay (100 g/ha) 3 DC) [%] | pest or weed control at 100 g/ha ([1]; SEPTTR standard laboratory isolate, low volume Type B assay, 3 Day Protectant, wheat leaf blotch, read-out: Disease Control, SI SEPTTR Type B Assay (100 g/ha) 3 DP) [%] | pest or weed control at 100 g/ha ([2]; SEPTTR field isolate, low volume Type B assay, 3 Day Curative, wheat leaf blotch, read-out: Disease Control, FI SEPTTR Type B Assay (100 g/ha) 3 DC) [%] | pest or weed control at 100 g/ha ([2]; SEPTTR field isolate, low volume Type B assay, 3 Day Protectant, wheat leaf blotch, read-out: Disease Control, FI SEPTTR Type B Assay (100 g/ha) 3 DP) [%]
CC(C)C(O)(c1cncnc1)c1ccc(Oc2ccc(C(F)(F)F)cc2)cn1 (stereo not shown) [Compound 3, 2-methyl-1-(pyrimidin-5-yl)-1-(5-(4-(trifluoromethyl)-phenoxy)pyridin-2-yl)propan-1-ol] | 80 to 100 | 80 to 100 | 60 to 79 | 40 to 59 | 80 to 100 | D (<40) | – | – | – | – | –
CC(C)C(O)(c1cncnc1)c1ccc(Oc2ccc(Cl)cn2)cn1 (stereo not shown) [Compound 13] | 60 to 79 | 80 to 100 | 40 to 59 | 60 to 79 | 80 to 100 | – | 80 to 100 | – | – | – | –
OC(c1cncnc1)(c1ccc(Oc2ccc(Cl)cn2)cn1)C1CC1 (stereo not shown) [Compound 14] | 60 to 79 | 60 to 79 | 40 to 59 | 60 to 79 | 80 to 100 | – | 80 to 100 | – | – | – | –
OC(c1cncnc1)(c1ccc(Oc2ccc(C(F)(F)F)cc2)cn1)C1CC1 (stereo not shown) [Compound 17] | 80 to 100 | 80 to 100 | 60 to 79 | 60 to 79 | 80 to 100 | – | 80 to 100 | – | – | – | –
CC(C)(C)C(O)(c1cncnc1)c1ccc(-c2ccc(OC(F)(F)F)cc2)cn1 (stereo not shown) [Compound 27, 2,2-dimethyl-1-(pyrimidin-5-yl)-1-(5-(4-(trifluoro-methoxy)phenyl)pyridin-2-yl)propan-1-ol] | 80 to 100 | 80 to 100 | 80 to 100 | 80 to 100 | 80 to 100 | – | 80 to 100 | – | – | – | –
CC(C)C(O)(Cc1cncnc1)c1ccc(-c2ccc(Cl)cc2)cn1 (stereo not shown) [Compound 38] | 80 to 100 | 80 to 100 | 80 to 100 | 40 to 59 | 80 to 100 | – | 80 to 100 | – | – | – | –
OC(Cc1cncnc1)(c1ccc(-c2ccc(Cl)cc2)cn1)C1CC1 (stereo not shown) [Compound 39] | 80 to 100 | 80 to 100 | 60 to 79 | 40 to 59 | 80 to 100 | – | 80 to 100 | – | – | – | –
OC(Cc1ccc(Cl)cc1F)(c1cncnc1)c1ccc(Oc2ccc(Cl)cc2)cn1 (stereo not shown) [Compound 41, 2-(4-chloro-2-fluorophenyl)-1-(5-(4-chlorophenoxy)-pyridin-2-yl)-1-(pyrimidin-5-yl)ethanol] | 80 to 100 | 80 to 100 | < 40 | 60 to 79 | 80 to 100 | – | 80 to 100 | – | – | – | –
CC(C)(C)C(O)(Cc1cncnc1)c1ccc(-c2ccc(Cl)cc2)cn1 (stereo not shown) [Compound 51] | 40 to 59 | 60 to 79 | 60 to 79 | 60 to 79 | 80 to 100 | – | 80 to 100 | – | – | – | –
CCC(C)(C)C(O)(Cc1cncnc1)c1ccc(-c2ccc(Cl)cc2)cn1 (stereo not shown) [Compound 57] | 80 to 100 | 80 to 100 | < 40 | < 40 | 80 to 100 | – | 80 to 100 | – | – | – | –
CC(C)(C)C(O)(c1cncnc1)c1ccc(-c2ccc(OC(F)F)cc2)cn1 (stereo not shown) [Compound 59] | 80 to 100 | 80 to 100 | 80 to 100 | 80 to 100 | 80 to 100 | – | 80 to 100 | – | – | – | –
OC(c1cncnc1)(c1ccc(-c2ccc(OC(F)F)cc2)cn1)C1CC1 (stereo not shown) [Compound 60] | 80 to 100 | 80 to 100 | < 40 | 60 to 79 | 80 to 100 | – | 80 to 100 | – | – | – | –
CC(C)C(O)(c1cncnc1)c1ccc(-c2ccc(OC(F)(F)F)cc2)cn1 (stereo not shown) [Compound 63] | 80 to 100 | 80 to 100 | 40 to 59 | 60 to 79 | 80 to 100 | – | 80 to 100 | – | – | – | –
CC(C)C(O)(c1cncnc1)c1ccc(-c2ccc(OCC(F)(F)F)nc2)cn1 (stereo not shown) [Compound 64] | 80 to 100 | 80 to 100 | 60 to 79 | 80 to 100 | 80 to 100 | – | 80 to 100 | – | – | – | –
CC(C)(C)C(O)(c1cncnc1)c1ccc(-c2ccc(Cl)cc2)cn1 (stereo not shown) [Compound 65] | 80 to 100 | 80 to 100 | 60 to 79 | 60 to 79 | – | – | 80 to 100 | – | – | – | –
OC(c1cncnc1)(c1ccc(-c2ccc(OC(F)(F)F)cc2)cn1)C1CC1 (stereo not shown) [Compound 73] | 80 to 100 | 80 to 100 | 60 to 79 | 60 to 79 | – | – | 80 to 100 | – | – | – | –
CC(C)(C)C(O)(Cc1cncnc1)c1ccc(-c2ccc(OC(F)(F)F)cc2)cn1 (stereo not shown) [Compound 74] | 80 to 100 | 80 to 100 | 40 to 59 | < 40 | – | – | 80 to 100 | – | – | – | –
OC(c1cccnc1)(c1ccc(-c2ccc(OC(F)(F)F)cc2)cn1)C1CC1 (stereo not shown) [Compound 78] | 80 to 100 | 80 to 100 | 60 to 79 | 60 to 79 | – | – | 80 to 100 | – | – | – | –
CC(C)(C)C(O)(c1cccnc1)c1ccc(-c2ccc(OC(F)(F)F)cc2)cn1 (stereo not shown) [Compound 80] | 80 to 100 | 80 to 100 | 80 to 100 | 80 to 100 | – | – | 80 to 100 | – | – | – | –
OC(c1cccnc1)(c1ccc(-c2ccc(OC(F)F)cc2)cn1)C1CC1 (stereo not shown) [Compound 81] | 80 to 100 | 60 to 79 | < 40 | 80 to 100 | – | – | 80 to 100 | – | – | – | –
Cc1ncccc1C(O)(c1ccc(-c2ccc(OC(F)(F)F)cc2)cn1)C(C)(C)C (stereo not shown) [Compound 151] | 80 to 100 | 80 to 100 | – | – | – | – | 80 to 100 | – | – | – | –
COC(c1cncnc1)(c1ccc(-c2ccc(OC(F)(F)F)cc2)cn1)C(C)(C)C (stereo not shown) [Compound 277, 5-(1-methoxy-2,2-dimethyl-1-(5-(4-(trifluoromethoxy)phenyl)pyridin-2-yl)propyl)pyrimidine] | – | – | – | – | – | – | – | 80 to 100 | 80 to 100 | 80 to 100 | 80 to 100
